Assays:
ZR-75-1 [1] = test: relative IC50 (midpoint of fitted logistic curve, plateau may be below 50% inhibition; CellTiter-Glo viability); higher = less potent; details: 72 h
How it was run: (§1)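 Breast cancer cell lines and their resistant derivatives were seeded into 384-well plates holding FO2Baq library drugs at five concentrations spanning a 10 000-fold range. Resistant lines were in medium with 1 μM of the selecting drug. Cells were incubated 72 h at 37 °C, and CellTiter-Glo viability was read on a PHERAstar and normalised to vehicle-only and positive controls. Drug sensitivity score, relative IC50 (curve midpoint) and top-dose inhibition came from logistic dose–response fits (Breeze pipeline).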

BT-474 [2] = test: as above; details: 72 h
How it was run: as §1

T-47D Tam2 [3] = test: as above; details: 4-OH-tamoxifen in medium 1 µM; 72 h
How it was run: as §1

MCF-7 Tam1 [4] = test: as above; details: 4-OH-tamoxifen in medium 1 µM; 72 h
How it was run: as §1

ZR-75-1 Tam2 [5] = test: as above; details: 4-OH-tamoxifen in medium 1 µM; 72 h
How it was run: as §1

T-47D [6] = test: as above; details: 72 h
How it was run: as §1

BT-474 Tam2 [7] = test: as above; details: 4-OH-tamoxifen in medium 1 µM; 72 h
How it was run: as §1

BT-474 Tam1 [8] = test: as above; details: 4-OH-tamoxifen in medium 1 µM; 72 h
How it was run: as §1

ZR-75-1 Tam1 [9] = test: as above; details: 4-OH-tamoxifen in medium 1 µM; 72 h
How it was run: as §1

ZR-75-1 [10] = test: drug sensitivity score (DSS) (DSS (dimensionless)); higher = more sensitive; extreme values may be limits of the assay; details: 72 h
How it was run: as §1

T-47D Tam1 [11] = test: as above; details: 4-OH-tamoxifen in medium 1 µM; 72 h
How it was run: as §1

BT-474 [12] = test: as above; details: 72 h
How it was run: as §1

T-47D Tam2 [13] = test: as above; details: 4-OH-tamoxifen in medium 1 µM; 72 h
How it was run: as §1

MCF-7 Tam1 [14] = test: as above; details: 4-OH-tamoxifen in medium 1 µM; 72 h
How it was run: as §1

ZR-75-1 Tam2 [15] = test: as above; details: 4-OH-tamoxifen in medium 1 µM; 72 h
How it was run: as §1

MCF-7 [16] = test: as above; details: 72 h
How it was run: as §1

T-47D [17] = test: as above; details: 72 h
How it was run: as §1

BT-474 Tam2 [18] = test: as above; details: 4-OH-tamoxifen in medium 1 µM; 72 h
How it was run: as §1

BT-474 Tam1 [19] = test: as above; details: 4-OH-tamoxifen in medium 1 µM; 72 h
How it was run: as §1

ZR-75-1 Tam1 [20] = test: as above; details: 4-OH-tamoxifen in medium 1 µM; 72 h
How it was run: as §1

MCF-7 [21] = test: relative IC50 (midpoint of fitted logistic curve, plateau may be below 50% inhibition; CellTiter-Glo viability); higher = less potent; details: 72 h
How it was run: as §1

T-47D Tam1 [22] = test: as above; details: 4-OH-tamoxifen in medium 1 µM; 72 h
How it was run: as §1

SMILES	relative IC50 (ZR-75-1 [1]; 4-OH-tamoxifen in medium 0 µM) [nM]	relative IC50 (ZR-75-1 [1]; 4-OH-tamoxifen in medium 1 µM) [nM]	relative IC50 (BT-474 [2]; 4-OH-tamoxifen in medium 0 µM) [nM]	relative IC50 (BT-474 [2]; 4-OH-tamoxifen in medium 1 µM) [nM]	relative IC50 (T-47D Tam2 [3]) [nM]	relative IC50 (MCF-7 Tam1 [4]) [nM]	relative IC50 (ZR-75-1 Tam2 [5]) [nM]	relative IC50 (T-47D [6]; 4-OH-tamoxifen in medium 0 µM) [nM]	relative IC50 (BT-474 Tam2 [7]) [nM]	relative IC50 (BT-474 Tam1 [8]) [nM]	relative IC50 (ZR-75-1 Tam1 [9]) [nM]	drug sensitivity score (ZR-75-1 [10]; 4-OH-tamoxifen in medium 0 µM)	drug sensitivity score (ZR-75-1 [10]; 4-OH-tamoxifen in medium 1 µM)	drug sensitivity score (T-47D Tam1 [11])	drug sensitivity score (BT-474 [12]; 4-OH-tamoxifen in medium 0 µM)	drug sensitivity score (BT-474 [12]; 4-OH-tamoxifen in medium 1 µM)	drug sensitivity score (T-47D Tam2 [13])	drug sensitivity score (MCF-7 Tam1 [14])	drug sensitivity score (ZR-75-1 Tam2 [15])	drug sensitivity score (MCF-7 [16]; 4-OH-tamoxifen in medium 0 µM)	drug sensitivity score (MCF-7 [16]; 4-OH-tamoxifen in medium 1 µM)	drug sensitivity score (T-47D [17]; 4-OH-tamoxifen in medium 0 µM)	drug sensitivity score (T-47D [17]; 4-OH-tamoxifen in medium 1 µM)	drug sensitivity score (BT-474 Tam2 [18])	drug sensitivity score (BT-474 Tam1 [19])	drug sensitivity score (ZR-75-1 Tam1 [20])	relative IC50 (MCF-7 [21]; 4-OH-tamoxifen in medium 0 µM) [nM]	relative IC50 (MCF-7 [21]; 4-OH-tamoxifen in medium 1 µM) [nM]	relative IC50 (T-47D [6]; 4-OH-tamoxifen in medium 1 µM) [nM]	relative IC50 (T-47D Tam1 [22]) [nM]
C/C(=C\c1csc(C)n1)[C@@H]1C[C@@H]2O[C@]2(C)CCC[C@H](C)[C@H](O)[C@@H](C)C(=O)C(C)(C)[C@@H](O)CC(=O)N1 [Ixabepilone]	> 1000	> 1000	> 1000	436	229	> 1000	> 1000	415	> 1000	> 1000	> 1000	0	0	0.349	0	1.39	2.1	0	0	0.882	1	1.7	0.538	0	0	0	–	–	–	–
N#Cc1ccc(C(c2ccc(C#N)cc2)n2cncn2)cc1 [Letrozole]	> 10000	> 10000	> 10000	> 10000	> 10000	> 10000	> 10000	> 10000	> 10000	> 10000	> 10000	0	0	2.88	0	0	0	0	0	0	0	0	11.1	0	0	0	> 10000	> 10000	–	–
CCN1CCN(c2ccc(Nc3cc(N(C)C(=O)Nc4c(Cl)c(OC)cc(OC)c4Cl)ncn3)cc2)CC1 [NVP-BGJ398]	> 1000	> 1000	> 1000	> 1000	> 1000	> 1000	> 1000	> 1000	> 1000	–	> 1000	0	0	1.07	0	0	0	0	0	0	0	0	0	0	6.97	0	> 1000	> 1000	> 1000	–
COc1ccccc1S(=O)(=O)Nc1ccc2c(c1)CN(C)C(=O)N2 [PFI-1]	–	–	1100	–	2710	> 10000	–	–	1620	–	–	0.0459	1.01	4.01	2.69	0.561	1.76	0	1.77	2.8	2.92	0.887	0.0577	2.35	0.704	1.48	2530	1890	–	492
CC(=O)O[C@H]1C(=O)[C@@]2(C)[C@H]([C@H](OC(=O)c3ccccc3)[C@]3(O)C[C@H](OC(=O)[C@H](O)[C@@H](NC(=O)c4ccccc4)c4ccccc4)C(C)=C1C3(C)C)[C@]1(OC(C)=O)CO[C@@H]1C[C@@H]2O [Paclitaxel]	–	> 1000	8.49	5.9	10.9	> 1000	> 1000	5.91	–	32.3	> 1000	6.96	0	7.9	11.5	15.5	7.33	0	0	7.01	7.14	13	1.38	3.11	4.68	0	–	16.9	–	–
C/C(=C\c1csc(C)n1)[C@@H]1C[C@@H]2O[C@]2(C)CCC[C@H](C)[C@H](O)[C@@H](C)C(=O)C(C)(C)[C@@H](O)CC(=O)O1 [Patupilone  (Epothilone B)]	–	> 1000	20.1	5.98	14.7	> 1000	> 1000	9.51	29.7	11.8	> 1000	4.4	0	4.63	9.82	14.9	6.29	0	0	7.85	4.38	8.94	1.35	5.53	8.19	0	–	–	242	–
COc1cc(Nc2ncc(F)c(Nc3ccc4c(n3)NC(=O)C(C)(C)O4)n2)cc(OC)c1OC [Tamatinib (R406)]	> 10000	> 10000	> 10000	> 10000	> 10000	> 10000	> 10000	> 10000	> 10000	> 10000	> 10000	0	0	0.592	0	0	0	0	0	0	0	0	0	0	0	0	> 10000	> 10000	> 10000	–

Reference: the supplement of paper PMC4932681
